Patent US20130109698A1, “Small Molecule Inhibitors of Functions of the HIV-1 Matrix Protein” (priority 2010, published 2013)
Like-named read-outs stand apart in the source and are kept apart here.

Key:
[1] = test system: HIV-1 92BR030; assay: Anti-HIV efficacy in human PBMCs, reverse transcriptase activity; type: cell-based; settings: HIV-1 92BR030, PBMCs
Experimental: (§1) HIV human peripheral blood mononuclear cell (PBMC) assays were performed as described previously (Lanier et al., 2010, Antimicrob Agents Chemother 54:2901-2909 and Ptak et al., 2008, Antimicrob Agents Chemother 52:1302-1317). Briefly, fresh PBMCs, seronegative for HIV and hepatitis B virus (HBV), were isolated from blood samples of the screened donors (Biological Specialty Corporation, Colmar, Pa.) by using lymphocyte separation medium (LSM; density, 1.078±0.002 g/ml; Cellgro; Mediatech, Inc.) by following the manufacturer's instructions. Cells were stimulated by incubation in 4 μg/mL phytohemagglutinin (PHA; Sigma) for 48 to 72 h. Mitogenic stimulation was maintained by the addition of 20 U/mL recombinant human interleukin-2 (rhIL-2; R&D Systems, Inc.) to the culture medium. PHA-stimulated PBMCs from at least two donors were pooled, diluted in fresh medium, and added to 96-well plates at 5×10^4 cells/well. Cells were infected (final multiplicity of infection [MOI] of ≅0.1) in the presence of nine different concentrations of test compounds (triplicate wells/concentration) and incubated for 7 days. To determine the level of virus inhibition, cell-free supernatant samples were collected for analysis of reverse transcriptase activity (Buckheit et al., 1991, AIDS Res Hum Retroviruses 7:295-302). Following removal of supernatant samples, compound cytotoxicity was measured by the addition of 3-(4,5-dimethylthiazol-2-yl)-5-(3-carboxymethoxy-phenyl)-2-(4-sulfophenyl)-2H-tetrazolium (MTS; CellTiter 96 reagent; Promega) by following the manufacturer's instructions.

[2] = test system: HIV-1 93IN101; assay: as above; type: cell-based; settings: HIV-1 93IN101, PBMCs
Experimental: as §1

[3] = test system: SIV MAC251; assay: Antiviral efficacy in PBMCs, reverse transcriptase activity; type: cell-based
[4] = Compound cytotoxicity in PBMCs (MTS); type: cell-based, human; settings: human, read-out: TC50
Experimental: as §1

[5] = test system: HIV-1 Ba-L; assay: Antiviral activity of additional compounds (Tables 6 and 7); type: cell-based; settings: for IC50 / IC90: Human immunodeficiency virus 1, BAL
Experimental: as §1

[6] = test system: HIV-1 NL4-3; assay: as above; type: cell-based; settings: for IC50 / IC90: Human immunodeficiency virus 1, NL43
Experimental: as §1

[7] = test system: luciferase-reporter HIV-1 NL4-3 pseudotyped with HxBc2 envelope produced in 293T cells; assay: microbe, parasite or virus in culture
[8] = target: T1, HIV-1 MA (Human immunodeficiency virus type 1 group M subtype B, UniProt P03348); assay: Surface plasmon resonance direct binding to immobilized HIV-1 MA; settings: CM7 sensor chip, 10 μM (FIG. 14)
T1 construct: His6 (N, cleaved yes); SUMO (N, cleaved yes); made in house; host or cells: Escherichia coli BL21 (DE3) Codon+-RIL
Source text: An assay was devised to monitor the interactions of small-molecule compounds to HIV-1 MA using SPR. In this assay, HIV-1LA1 MA was immobilized to the flow cells of a CM5 sensor chip to high density (˜1.3 kRU) or a CM7 sensor chip to high density (19 kRU) using standard amine coupling. A reference surface was similarly created by immobilizing the SUMO protein or a nonspecific antibody ARC4033 (antimouse/rat interferon-γ: BioSource). In small-molecule assays, the buffering system used is important due to the low responses obtained in binding assays. […] A stock solution of the MTI compounds was prepared by dissolving in 100% dimethyl sulfoxide (DMSO) to a final concentration of 10 mM.
To prepare the sample for analysis, 30 μL of the stock solution of the compound of the invention was added to sample preparation buffer (PBS, pH 7.2) to a final volume of 1 mL and mixed thoroughly. Preparation of analyte in this manner ensured that the concentration of DMSO was matched with that of running buffer with 3% DMSO. Lower concentrations of each compound were then prepared by two-fold serial dilutions into running buffer (PBS, 3% DMSO, pH 7.2). These compound dilutions were then injected over the control and MA surfaces at a flow rate of 30 μL min^−, for a 4-min association phase, followed by a 5-min dissociation phase.
In one aspect, owing to the relatively fast dissociation rates of these compounds, regeneration of these surfaces was accomplished by extensive washing of the system followed by a 5 min wait phase, a second wash, and a final 15 min wait phase. To secure complete regeneration, a buffer injection (5 min^on/5 min^off) was performed before each subsequent injection of compound.
Response to a small-molecule compound (NBD-556) specific for HIV-1 gp120 was also monitored to ensure specificity.
Data analysis was performed using BIAEvaluation 4.0 software (GE Healthcare). The responses of a buffer injection and responses from the ARC4033-immobilized reference cell were subtracted to account for nonspecific binding. The average maximum response was generated from a minimum of 3 data sets and was used to define the standard deviation for each compound binding to the HIV-1 MA protein.
The MTI compounds are predicted to interact with HIV-1 MA and thereby disrupt its functioning during the HIV-1 replication cycle. However, it is possible that a compound might exert its action via another mechanism not involving MA. Therefore, studies were performed to determine that the MTI compounds are directed against HIV-1 MA. The direct interaction of compounds CMPD-18, CMPD-17, CMPD-7, and CMPD-14 with HIV-1 MA was assayed using surface plasmon resonance interaction analyses. Wild-type HIV-1 MA protein was overproduced in E. coli using the pETHSUL expression system and purified using successive IMAC strategies, followed by an ion exchange chromatographic step as outlined in Materials and Methods. FIG. 6 illustrates the purification profile of HIV-1 MA. The purified MA was then immobilized onto the surface of a high-capacity CM7 sensor chip. Similarly, the monoclonal antibody ARC4033 (antimouse/rat interferon-γ; BioSource, Invitrogen, Carlsbad, Calif.) was immobilized on a CM7 sensor chip and was used to correct for background binding and instrument and buffer artifacts.

[9] = Human immunodeficiency virus 1, PBMC
[10] = Simian immunodeficiency virus, PBMC

## COc1ccccc1-c1noc(=O)n1-c1cccc(C(F)(F)F)c1 [ITI-367, 3-(2-methoxyphenyl)-4-[3-trifluoromethyl-phenyl]-1,2,4-oxadiazol-5-one, reference compound]
[1]
  Antiviral index (TC50/IC50): >2.13
[1]; [9]
  IC50: 47 µM
  IC90: > 100 µM
[2]
  Antiviral index (TC50/IC50): >2.39
[2]; [9]
  IC50: 41.9 µM
  IC90: 96 µM
[3]
  Antiviral index (TC50/IC50): >1.33
[3]; [10]
  IC50: 74.9 µM
  IC90: > 100 µM
[4]; Table 4 study, PBMCs
  CC50 at 7 days: > 100 µM

## O=C(CNC(=O)COc1ccccc1)NCc1ccccc1 [CMPD-38, N-benzyl-2-(2-phenoxyacetamido)acetamide]
[5]
  IC50: > 100 µM
  IC90: > 100 µM
[6]
  IC50: > 100 µM
  IC90: > 100 µM
[4]; Tables 6 and 7 study
  CC50 at 7 days: > 100 µM

## COc1ccc(OCC(=O)NCC(=O)NCc2ccc(C(=O)N3CCN(C)CC3)cc2)cc1 [CMPD-43, 2-(4-methoxyphenoxy)-N-(2-((4-(4-methylpiperazine-1-carbonyl)benzyl)amino)-2-oxoethyl)acetamide]
[5]
  IC50: > 100 µM
  IC90: > 100 µM
[6]
  IC50: > 100 µM
  IC90: > 100 µM
[4]; Tables 6 and 7 study
  CC50 at 7 days: > 100 µM

## O=C(CNC(=O)COc1ccccc1)NCc1ccc(C(F)(F)F)cc1 [CMPD-37, N-(2-oxo-2-((4-(trifluoromethyl)benzyl)amino)ethyl)-2-phenoxyacetamide]
[5]
  IC50: > 100 µM
  IC90: > 100 µM
[6]
  IC50: > 100 µM
  IC90: > 100 µM
[4]; Tables 6 and 7 study
  CC50 at 7 days: > 100 µM

## O=C(CNC(=O)COc1ccc(C(F)(F)F)cc1)NCc1ccc(C(=O)N2CCCCC2)cc1 [CMPD-48, N-(2-oxo-2-((4-(piperidine-1-carbonyl)benzyl)amino)ethyl)-2-(4-(trifluoromethyl)phenoxy)acetamide]
[5]
  Antiviral index (TC50/IC50): > 4.86
  IC50: 20.6 µM
  IC90: > 100 µM
[6]
  Antiviral index (TC50/IC50): > 4.45
  IC50: 22.5 µM
  IC90: > 100 µM
[4]; Tables 6 and 7 study
  CC50 at 7 days: > 100 µM

## COc1c(Cl)cc(C(=O)N2CCN(Cc3nc(-c4ccc(C)cc4)no3)CC2)cc1Cl [CMPD-3, (3,5-dichloro-4-methoxyphenyl)(4-((3-(p-tolyl)-1,2,4-oxadiazol-5-yl)methyl)piperazin-1-yl)methanone]
[7]
  IC50: > 100 µM

## CC1(C)CC(NC(=O)C(=O)Nc2ccc(Cl)cc2)CC(C)(C)N1 [NBD-556, N-(4-chlorophenyl), —N′-(2,2,6,6-tetramethylpiperidin-4-yl)-oxalamide, reference compound]
[8]
  direct interaction with sensor chip-immobilized HIV-1 MA: no such interaction

## O=C(CNC(=O)COc1ccccc1)NCc1cccc(Cl)c1 [CMPD-39, N-(3-chlorobenzyl)-2-(2-phenoxyacetamido)acetamide]
[5]
  IC50: > 100 µM
  IC90: > 100 µM
[6]
  IC50: > 100 µM
  IC90: > 100 µM
[4]; Tables 6 and 7 study
  CC50 at 7 days: > 100 µM

## O=C(CNC(=O)COc1ccccc1)NCc1ccc(Cl)cc1 [CMPD-35, N-(4-chlorobenzyl)-2-(2-phenoxyacetamido)acetamide]
[5]
  IC50: > 100 µM
  IC90: > 100 µM
[6]
  IC50: > 100 µM
  IC90: > 100 µM
[4]; Tables 6 and 7 study
  CC50 at 7 days: > 100 µM

## CC(=O)NCC(=O)NCc1ccc(C(=O)N2CCN(C)CC2)cc1 [CMPD-41, 2-acetamido-N-(4-(4-methylpiperazine-1-carbonyl)benzyl)acetamide]
[5]
  IC50: > 100 µM
  IC90: > 100 µM
[6]
  IC50: > 100 µM
  IC90: > 100 µM
[4]; Tables 6 and 7 study
  CC50 at 7 days: > 100 µM

## O=C(CNC(=O)COc1ccc(Cl)cc1)NCc1ccc(C(=O)N2CCCCC2)cc1 [CMPD-46, 2-(4-chlorophenoxy)-N-(2-oxo-2-((4-(piperidine-1-carbonyl)benzyl)amino)ethyl)acetamide]
[5]
  Antiviral index (TC50/IC50): > 1.38
  IC50: 72.6 µM
  IC90: > 100 µM
[6]
  Antiviral index (TC50/IC50): > 1.28
  IC50: 78.1 µM
  IC90: > 100 µM
[4]; Tables 6 and 7 study
  CC50 at 7 days: > 100 µM

## CN1CCN(C(=O)c2ccc(CNC(=O)CNC(=O)COc3ccc(Cl)cc3)cc2)CC1 [CMPD-42, 2-(4-chlorophenoxy)-N-(2-((4-(4-methylpiperazine-1-carbonyl)benzyl)amino)-2-oxoethyl)acetamide]
[5]
  IC50: > 100 µM
  IC90: > 100 µM
[6]
  IC50: > 100 µM
  IC90: > 100 µM
[4]; Tables 6 and 7 study
  CC50 at 7 days: > 100 µM

## COc1ccc(OCC(=O)NCC(=O)NCc2ccc(C(=O)N3CCCCC3)cc2)cc1 [CMPD-47, 2-(4-methoxyphenoxy)-N-(2-oxo-2-((4-(piperidine-1-carbonyl)benzyl)amino)ethyl)acetamide]
[5]
  Antiviral index (TC50/IC50): 1.44
  IC50: 50.8 µM
  IC90: 96.1 µM
[6]
  Antiviral index (TC50/IC50): 1.39
  IC50: 52.7 µM
  IC90: 92.7 µM
[4]; Tables 6 and 7 study
  CC50 at 7 days: 73.1 µM

## COc1ccc(CNC(=O)CNC(=O)COc2ccccc2)cc1 [CMPD-36, N-(4-methoxybenzyl)-2-(2-phenoxyacetamido)acetamide]
[5]
  IC50: > 100 µM
  IC90: > 100 µM
[6]
  IC50: > 100 µM
  IC90: > 100 µM
[4]; Tables 6 and 7 study
  CC50 at 7 days: > 100 µM

## CN1CCN(C(=O)c2ccc(CNC(=O)CNC(=O)COc3ccccc3)cc2)CC1 [CMPD-40, N-(4-(4-methylpiperazine-1-carbonyl)benzyl)-2-(2-phenoxyacetamido)acetamide]
[5]
  IC50: > 100 µM
  IC90: > 100 µM
[6]
  IC50: > 100 µM
  IC90: > 100 µM
[4]; Tables 6 and 7 study
  CC50 at 7 days: > 100 µM

## CC(=O)NCC(=O)NCc1ccc(C(=O)N2CCCCC2)cc1 [CMPD-45, 2-acetamido-N-(4-(piperidine-1-carbonyl)benzyl)acetamide]
[5]
  IC50: > 100 µM
  IC90: > 100 µM
[6]
  IC50: > 100 µM
  IC90: > 100 µM
[4]; Tables 6 and 7 study
  CC50 at 7 days: > 100 µM

## CN1CCN(C(=O)c2ccc(CNC(=O)CNC(=O)COc3ccc(C(F)(F)F)cc3)cc2)CC1 [CMPD-44, N-(4-(4-methylpiperazine-1-carbonyl)benzyl)-2-(2-(4-(trifluoromethyl)phenoxy)acetamido)acetamide]
[5]
  IC50: > 100 µM
  IC90: > 100 µM
[6]
  IC50: > 100 µM
  IC90: > 100 µM
[4]; Tables 6 and 7 study
  CC50 at 7 days: > 100 µM
